This is an account of results in US10478482B2, “Vaccines for prevention and treatment of tuberculosis” (ALARUM DEVELOPMENT LTD, priority 2011, dated 2019).

The test system of experiment [1] is serum from patients with TB. Nature of the experiment: Antibody recognition of peptides by serum from patients with TB. Format: binding, human. Conditions: for Average int. / N. of slide (frequency of recognition): serum from the group TB; for N. of slide (frequency of recognition): out of 9 individuals. From the text: (§1) Serum was obtained from patients with sarcoidosis (FIG. 4A) and from patients with TB (FIG. 4B). The number indicate the frequency of recognition, e.g. 1/9 individuals up to 9/9 individuals. The listed peptides are only listed if they are present in one group (sarcoidosis versus tuberculosis) and if the peptide is never recognized in any serum from the respective control group. […] Strong IgG response requires strong T-cell help which lends support that these antigens are also recognized by T-cells.

The subject of experiment [2] is serum from patients with sarcoidosis. Nature of the experiment: Antibody recognition of peptides by serum from patients with sarcoidosis. The format is binding, human. The note with it: for Average int. / N. of slide (frequency of recognition): serum from the group sarcoidosis; for N. of slide (frequency of recognition): out of 9 individuals.
Description: as §1

Another experiment relates to PBMCs. The format is cell-based, monkey.
Experiment [3] concerns IFNγ production in freshly harvested Heparin-blood. The format is cell-based, human.
For another experiment, the system named is peritoneal macrophages. Nature of the experiment: Cytokine induction in peritoneal macrophages. The format is cell-based, mouse. Conditions: FIG. 10.

Regarding “AAGNNVTVFGYSQSA [CAE55427-PPE family protein_289]”, in experiment [1], the Average int. is given as 0.4545 and the “N. of slide (frequency of recognition)” value is 6.
Take “APALMDVEAAYEQMW [CAE55281-PPE family protein_133]”: in experiment [2], the Average int. is 1.6787 and the “N. of slide (frequency of recognition)” value is listed as 9.
In the case of “AWVSRGAHKLVGALE [CAB10951-cytotoxin haemolysin homologue TLYA_61]”, in experiment [1], the Average int. came out at 0.7175 and the “N. of slide (frequency of recognition)” value was found to be 7.
In the case of “GGGNTGSGNIGNGNK [CAE55613-PPE family protein_193]”, in experiment [2], the Average int. was 1.2266 and the “N. of slide (frequency of recognition)” value turned out to be 9.
“GLYQVVPGIYQVRGF [CAA18084-possible hydrolase_85]”: in experiment [1], the Average int. is listed as 0.5432 and the “N. of slide (frequency of recognition)” value worked out at 8.
Take “GSSAMILAAYHPQQF [CAB10044-secreted antigen 85-B FBPB (85B)A_169]”: in experiment [2], the Average int. came to 0.6077 and the “N. of slide (frequency of recognition)” value stood at 9.
Regarding “LSGDNQQGFNFAGGW [CAE55276-PPE family protein_1117]”, in experiment [2], the Average int. is 1.6435 and the “N. of slide (frequency of recognition)” value worked out at 9.
Consider “MTAPVWLASPPEVHS [CAE55538-PPE family protein_1]”, for which, in experiment [1], the Average int. worked out at 0.8461 and the “N. of slide (frequency of recognition)” value is given as 8.
As for “NANFGGGNGSAFHGQ [CAE55320-PPE family protein_205]”, in experiment [2], the Average int. is 1.4131 and the “N. of slide (frequency of recognition)” value is 9.
Take “NTGSYNMGDFNPGSS [CAE55416-PPE family protein_385]”: in experiment [1], the Average int. was found to be 0.9479 and the “N. of slide (frequency of recognition)” value came to 7.
For the substance “Possible glycosyltransferase [CAB05419/Rv2957]”, in experiment [2], the “recognition by serum from the group sarcoidosis (in words)” value is reported as “never”. In experiment [1], the “recognition by serum from the group TB (in words)” value is reported as “most frequently recognized”. Moreover, the “intracellular cytokines, here represented by IL-2” value in the experiment with PBMCs was “Detection of intracellular cytokines”. In addition, the “antigen-specific T-cell responses (IFNγ)” value in experiment [3] was “can be detected”. Moreover, in the experiment on peritoneal macrophages, the “induction of IL-10” value was “little induction”, the “induction of IL-12” value is given as “Strong induction”, the “induction of TGF-β” value was “Strong induction” and the “induction of TN-Fa” value is listed as “little induction”.
“QWILHMAKLSAAMAK [CAA17973-conserved hypothetical alanine and_193]”: in experiment [1], the Average int. was 0.4333 and the “N. of slide (frequency of recognition)” value worked out at 6.
On to “SSGKPGRDPEAGRYG [CAB02482-probable lipase lipe_385]”, for which, in experiment [2], the Average int. is given as 1.3190 and the “N. of slide (frequency of recognition)” value is reported as 9.
For the substance “TRLGIRLVIVLVRRW [CAB05419-possible glycosyl transferase_241]”, in experiment [1], the Average int. is recorded as 0.9264 and the “N. of slide (frequency of recognition)” value is 9.
“VIGGIGPIHVQPIDI [CAE55585-PPE family protein_865]”: in experiment [2], the Average int. was 0.7433 and the “N. of slide (frequency of recognition)” value was 9.
